Laboratory results taken from US8524715B2, “Phenoxyacetic acid derivatives useful for treating respiratory diseases” (Astrazeneca AB, priority 2004, dated 2013).

Molecular target: T1, rhCRTh2 (Homo sapiens, UniProt Q9Y5Y4)
T1 construct: expressed in transfected cells; host or cells: HEK cells (membrane preparation)
T1 sequence (Q9Y5Y4 1-395): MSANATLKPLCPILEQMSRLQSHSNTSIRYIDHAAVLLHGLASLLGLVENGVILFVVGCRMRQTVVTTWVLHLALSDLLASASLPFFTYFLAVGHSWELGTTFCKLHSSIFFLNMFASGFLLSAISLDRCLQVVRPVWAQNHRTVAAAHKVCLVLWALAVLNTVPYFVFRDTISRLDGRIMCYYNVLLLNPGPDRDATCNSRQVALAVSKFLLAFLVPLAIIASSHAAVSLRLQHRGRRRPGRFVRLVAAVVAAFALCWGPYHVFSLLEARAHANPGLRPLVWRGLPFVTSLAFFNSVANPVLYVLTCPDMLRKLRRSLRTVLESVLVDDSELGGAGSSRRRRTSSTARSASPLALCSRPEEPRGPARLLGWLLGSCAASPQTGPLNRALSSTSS
Assay: Ligand Binding Assay ([3H]PGD2 SPA binding)
Conditions: [3H]PGD2 binding, membranes of HEK cells expressing rhCRTh2/Gα16, SPA beads, 2 hours room temperature; read-out: pIC50 value (converted)
Procedure: [^3H]PGD2 was purchased from Perkin Elmer Life Sciences with a specific activity of 100-210 Ci/mmol. All other chemicals were of analytical grade.
HEK cells expressing rhCRTh2/Gα16 were routinely maintained in DMEM containing 10% Foetal Bovine Serum (HyClone), 1 mg/ml geneticin, 2 mM L-glutamine and 1% non-essential amino acids. For the preparation of membranes, the adherent transfected HEKcells were grown to confluence in two layer tissue culture factories (Fisher, catalogue number TKT-170-070E). Maximal levels of receptor expression were induced by addition of […] sodium butyrate for the last 18 hours of culture. The adherent cells were washed once with phosphate buffered saline (PBS, 50 ml per cell factory) and detached by the addition of 50 ml 0.1 mM dithiothreitol, 1 mM EDTA, 0.1 mM phenyl methyl sulphonyl fluoride and 100 μg/ml bacitracin]. Cells were pelleted by centrifugation at 220×g for 10 minutes at 4° C., re-suspended in half the original volume of fresh membrane homogenisation buffer and disrupted using a Polytron homogeniser for 2×20 second bursts keeping the tube in ice at all times. Unbroken cells were removed by centrifugation at 220×g for 10 minutes at 4° C. and the membrane fraction pelleted by centrifugation at 90000×g for 30 minutes at 4° C. The final pellet was re-suspended in 4 ml of membrane homogenisation buffer per cell factory used and the protein content determined. Membranes were stored at −80° C. in suitable aliquots.
All assays were performed in Corning clear bottomed, white 96-well NBS plates (Fisher). Prior to assay, the HEK cells membranes containing CRTh2 were coated onto SPA PVT WGA beads (Amersham). For coating membranes were incubated with beads at typically 25 μg membrane protein per mg beads at 4° C. with constant agitation overnight. (The optimum coating concentrations were determined for each batch of membranes) The beads were pelleted by centrifugation (800×g for 7 minutes at 4° C.), washed once with assay buffer (50 mM HEPES pH 7.4 containing 5 mM magnesium chloride) and finally re-suspended in assay buffer at a bead concentration of 10 mg/ml.
Each assay contained 20 μl of 6.25 nM [^3H]PGD2, 20 μl membrane saturated SPA beads both in assay buffer and 10 μl of compound solution or 13,14-dihydro-15-keto prostaglandin D2 (DK-PGD2, for determination of non-specific binding, Cayman chemical company).
Compounds and DK-PGD2 were dissolved in DMSO and diluted in the same solvent to 100× the required final concentration. […] The assay plate was incubated at room temperature for 2 hours and counted on a Wallac Microbeta liquid scintillation counter (1 minute per well).

| SMILES | IC50 [nM] |
| --- | --- |
| O=C(O)COc1ccc(C(F)(F)F)cc1CN1CCCN(S(=O)(=O)c2ccc(F)cc2)CC1 [example 7, [2-[[4-[(4-fluorophenyl)sulfonyl]hexahydro-1H-1,4-diazepin-1-yl]methyl]-4-(trifluoromethyl)phenoxy]-acetic acid] | 89.1 |
| CC1CN(Cc2cc(Cl)ccc2OCC(=O)O)CCN1S(=O)(=O)c1ccccc1 (stereo not shown) [example 57, [4-Chloro-2-[[3-methyl-4-(phenylsulfonyl)-1-piperazinyl]methyl]phenoxy]acetic Acid] | 5.01 |
| O=C(O)COc1ccc(C(F)(F)F)cc1CN1CCN(C(=O)Cc2cccs2)CC1 [Example 42, [2-[[4-(2-thienylacetyl)-1-piperazinyl]methyl]-4-(trifluoromethyl)phenoxy]-acetic Acid] | 132 |
| C[C@H]1CN(Cc2cc(Cl)ccc2OCC(=O)O)CCN1C(=O)Cc1cccc(F)c1 [example 91, [4-chloro-2-[[(3S)-4-[(3-fluorophenyl)acetyl]-3-methyl-1-piperazinyl]methyl]phenoxy]-acetic Acid] | 15.8 |
